In ChEMBL document CHEMBL3351886:
The source made the active and inactive calls. The calls are words filed in the database; no cut-off is given here.

Assays:
Type in all cases: cell-based
[1] = system: NG108-15; assay: Agonist activity at AT2 receptor in rat and mouse hybridoma NG108-15 cells assessed as induction of neurite outgrowth at 100 nM after 3 days in presence of 1 uM AT2 receptor antagonist PD 123,319 by phase contrast microscopy
[2] = system: NG108-15; assay: Antagonist activity at AT2 receptor in rat and mouse hybridoma NG108-15 cells assessed as reduction in angiotensin-2-induced neurite outgrowth at 100 nM after 3 days by phase contrast microscopy
[3] = system: NG108-15; assay: Agonist activity at AT2 receptor in rat and mouse hybridoma NG108-15 cells assessed as induction of neurite outgrowth at 100 nM after 3 days by phase contrast microscopy

SMILES | Activity [1] | inhibition [2] | Activity [3]
CNCC(=O)N[C@@H](CCCNC(=N)N)C(=O)N[C@H](C(=O)N[C@@H](Cc1ccc(O)cc1)C(=O)N[C@H](C(=O)N[C@@H](Cc1cnc[nH]1)C(=O)N1CCC[C@H]1C(=O)N[C@@H](C)C(=O)O)C(C)C)C(C)C | inactive | inactive | Active
CC[C@H](C)[C@H](NC(=O)[C@H](Cc1ccc(O)cc1)NC(=O)[C@@H](NC(=O)[C@H](CCCNC(=N)N)NC(=O)[C@@H](N)CC(=O)O)C(C)C)C(=O)N[C@@H](Cc1cnc[nH]1)C(=O)N1CCC[C@H]1C(=O)N[C@@H](Cc1ccccc1)C(=O)O | inactive |  | Active
CC[C@H](C)[C@H](NC(=O)[C@@H]1CCCN1C(=O)[C@H](Cc1c[nH]cn1)NC(=O)[C@@H](NC(=O)[C@H](Cc1ccc(O)cc1)NC(=O)[C@@H](NC(=O)[C@H](CCCN=C(N)N)NC(=O)CNC)C(C)C)[C@@H](C)CC)C(=O)O | inactive | inactive | Active
